Test results taken from ChEMBL document CHEMBL3885861, “Open TG-GATES”.

Species on record: Rattus norvegicus
Test: Open TG-GATES - Regimen: Single
Type: toxicity, organism-based, Sprague-Dawley
Set-up: regimen Single, gender Male, age 6 weeks
Conditions: in vivo, iv, route intravenous injection; for KIDNEY_L / KIDNEY_R / KIDNEY_TOTAL: tissue Kidney; for LIVER: tissue Liver; for ALP / ALT / AST / BUN / CRE / DBIL / GLC / IP / K / PL / RALB / TBIL / TC / TG / TP / gamma-GTP / LDH / Na: tissue Plasma
[1] = 0 mg/kg, 3 h, dose level Control
[2] = 0 mg/kg, 3 h, tissue Blood, dose level Control
[3] = 0 mg/kg, 6 h, dose level Control
[4] = 0 mg/kg, 6 h, tissue Blood, dose level Control
[5] = 0 mg/kg, 9 h, dose level Control
[6] = 0 mg/kg, 9 h, tissue Blood, dose level Control
[7] = 0 mg/kg, 24 h, dose level Control
[8] = 0 mg/kg, 24 h, tissue Blood, dose level Control

CARBOPLATIN
TERMINAL_BW [1]: 198.4 g
Bas [2]: 0%
Eos [2]: 0.4%
Fbg [2]: 277.4 mg/dL
Lym [2]: 80%
MCH [2]: 21.1 pg
MCHC [2]: 32.1%
MCV [2]: 65.9 fL
Mono [2]: 2.2%
Neu [2]: 16.2%
PT [2]: 16 s
Plat [2]: 125.4 x10_4/uL
RBC [2]: 633.2 x10_4/ul
Ret [2]: 6.4%
WBC [2]: 107.8 x10_2/uL
KIDNEY_L [1]: 0.9 g
KIDNEY_R [1]: 0.9 g
KIDNEY_TOTAL [1]: 1.8 g
LIVER [1]: 9.1 g
ALP [1]: 1848.6 IU/L
ALT [1]: 47 IU/L
AST [1]: 86.2 IU/L
BUN [1]: 13.6 mg/dL
CRE [1]: 0.2 mg/dL
DBIL [1]: 0 mg/dL
GLC [1]: 197.2 mg/dL
IP [1]: 8.3 mg/dL
K [1]: 3.9 meq/L
PL [1]: 127.8 mg/dL
RALB [1]: 3 g/dL
TBIL [1]: 0.012 mg/dL
TC [1]: 71.8 mg/dL
TG [1]: 43 mg/dL
TP [1]: 5.5 g/dL
gamma-GTP [1]: 1.2 IU/L
TERMINAL_BW [3]: 200.5 g
APTT [4]: 24.3 s
Bas [4]: 0%
Eos [4]: 0.8%
Fbg [4]: 274.2 mg/dL
Lym [4]: 80.8%
MCV [4]: 64 fL
Mono [4]: 2.6%
Neu [4]: 15.4%
PT [4]: 16.1 s
Plat [4]: 119.1 x10_4/uL
RBC [4]: 645.6 x10_4/ul
Ret [4]: 6.5%
WBC [4]: 98 x10_2/uL
KIDNEY_L [3]: 0.9 g
KIDNEY_R [3]: 0.9 g
KIDNEY_TOTAL [3]: 1.8 g
LIVER [3]: 8.5 g
ALP [3]: 1354.4 IU/L
AST [3]: 77 IU/L
BUN [3]: 11.4 mg/dL
CRE [3]: 0.2 mg/dL
DBIL [3]: 0 mg/dL
GLC [3]: 180.6 mg/dL
IP [3]: 9.3 mg/dL
K [3]: 4.4 meq/L
LDH [3]: 202.4 IU/L
PL [3]: 128 mg/dL
RALB [3]: 2.9 g/dL
TBIL [3]: 0.01 mg/dL
TC [3]: 74.2 mg/dL
TG [3]: 74.2 mg/dL
TP [3]: 5.3 g/dL
gamma-GTP [3]: 1.4 IU/L
TERMINAL_BW [5]: 195.2 g
APTT [6]: 24.6 s
Bas [6]: 0%
Eos [6]: 0.6%
Fbg [6]: 296.4 mg/dL
Hb [6]: 13 g/dL
Lym [6]: 77.2%
MCHC [6]: 31.9%
MCV [6]: 64.4 fL
Mono [6]: 2%
Neu [6]: 19.8%
PT [6]: 16 s
Plat [6]: 121.6 x10_4/uL
RBC [6]: 635.2 x10_4/ul
Ret [6]: 6.3%
WBC [6]: 80.5 x10_2/uL
KIDNEY_L [5]: 0.9 g
KIDNEY_R [5]: 0.9 g
KIDNEY_TOTAL [5]: 1.8 g
LIVER [5]: 8.2 g
ALP [5]: 1521.4 IU/L
ALT [5]: 38.8 IU/L
AST [5]: 75.2 IU/L
CRE [5]: 0.2 mg/dL
DBIL [5]: 0 mg/dL
GLC [5]: 182.2 mg/dL
IP [5]: 9.7 mg/dL
K [5]: 4.3 meq/L
LDH [5]: 155 IU/L
Na [5]: 140.4 meq/L
PL [5]: 123.6 mg/dL
RALB [5]: 2.9 g/dL
TBIL [5]: 0.008 mg/dL
TC [5]: 72.4 mg/dL
TG [5]: 57.2 mg/dL
TP [5]: 5.3 g/dL
gamma-GTP [5]: 1 IU/L
TERMINAL_BW [7]: 214.9 g
APTT [8]: 23.2 s
Bas [8]: 0%
Eos [8]: 1%
Fbg [8]: 280.2 mg/dL
Lym [8]: 82.8%
MCHC [8]: 32.1%
MCV [8]: 63 fL
Mono [8]: 2.4%
PT [8]: 16.6 s
Plat [8]: 124.1 x10_4/uL
RBC [8]: 648.4 x10_4/ul
Ret [8]: 5.2%
WBC [8]: 108.2 x10_2/uL
KIDNEY_L [7]: 1 g
KIDNEY_R [7]: 1 g
KIDNEY_TOTAL [7]: 2 g
LIVER [7]: 9.7 g
ALP [7]: 1592.8 IU/L
ALT [7]: 42.2 IU/L
AST [7]: 73 IU/L
BUN [7]: 16.6 mg/dL
CRE [7]: 0.2 mg/dL
DBIL [7]: 0 mg/dL
GLC [7]: 183 mg/dL
IP [7]: 7.2 mg/dL
K [7]: 4.5 meq/L
LDH [7]: 175 IU/L
Na [7]: 140.4 meq/L
PL [7]: 133.4 mg/dL
RALB [7]: 2.9 g/dL
TBIL [7]: 0.006 mg/dL
TC [7]: 69.6 mg/dL
TG [7]: 84.4 mg/dL
TP [7]: 5.4 g/dL
gamma-GTP [7]: 1.2 IU/L
TERMINAL_BW (10 mg/kg, 3 h, dose level Low): 205.7 g
